We go through 22 compounds from patent publication US12532884B2, “Fungicidal compositions” (SYNGENTA CROP PROTECTION AG, priority 2020, dated 2026).

The test system of assay [1] is Phakopsora pachyrhizi. The assay can be described thus: Example D: preventative activity against Phakopsora pachyrhizi on soybean (whole plants sprayed, leaf disks inoculated). Type of assay: in vivo. From the text:
(§1) Certain mixture compositions comprising a compound of formula (I) described above may show a synergistic effect. This occurs whenever the action of an active ingredient combination is greater than the sum of the actions of the individual components. The action to be expected E for a given active ingredient combination obeys the so-called COLBY formula and can be calculated as follows (COLBY, S. R. “Calculating synergistic and antagonistic responses of herbicide combination”. Weeds, Vol. 15, pages 20-22; 1967): • ppm=milligrams of active ingredient (=a.i.) per liter of spray mixture • X=% action by active ingredient A) using p ppm of active ingredient • Y=% action by active ingredient B) using q ppm of active ingredient.
(§2) According to COLBY, the expected (additive) action of active ingredients A)+B) using p+q ppm of active ingredient is:
(§3) If the action actually observed (O) is greater than the expected action (E), then the action of the combination is super-additive, i.e. there is a synergistic effect. In mathematical terms, synergism corresponds to a positive value for the difference of (O-E). In the case of purely complementary addition of activities (expected activity), said difference (O-E) is zero. A negative value of said difference (O-E) signals a loss of activity compared to the expected activity.
Whole soybean plants are treated with the recited active ingredients 4 weeks after planting. 1 day after spraying leaf disks are cut from the first trifoliate leaf. Five repetitions at each rate are conducted. The leaf disks are inoculated with Phakopsora pachyrhizi (Asian soybean rust) one day after treatment. Evaluation of the leaf disks is conducted 11 to 14 days after inoculation and the activity is derived from the relation of the treated vs untreated, infested check. (100=no disease, no damage to the leaf, 0=high infestation, leaf damaged heavily). The rates of the active ingredients used are given in the tables as g active ingredient (a.i.)/ha.

For assay [2], the system named is Septoria glycines. The assay can be described thus: Example C3: mixtures against Septoria glycines (brown spot), liquid culture. Type of assay: cell-based. The note with it: single component; for inhibition at 0.1 ppm / inhibition at 0.3 ppm: Septoria glycines, read-out: Activity (%).
Source text: This occurs whenever the action of an active ingredient combination is greater than the sum of the actions of the individual components. The action to be expected E for a given active ingredient combination obeys the so-called COLBY formula and can be calculated as follows (COLBY, S. R. “Calculating synergistic and antagonistic responses of herbicide combination”. Weeds, Vol. 15, pages 20-22; 1967): • ppm=milligrams of active ingredient (=a.i.) per liter of spray mixture • X=% action by active ingredient A) using p ppm of active ingredient • Y=% action by active ingredient B) using q ppm of active ingredient.
as §2, §3
Mycelia fragments or conidia suspensions of a fungus prepared either freshly from liquid cultures of the fungus or from cryogenic storage, are directly mixed into nutrient broth. DMSO solutions of the test compound (max. 10 mg/mL) are diluted with 0.025% Tween20 by a factor of 50 and 10 μl of this solution is pipetted into a microtiter plate (96-well format). […] The test plates are incubated in the dark at 24° C. and 96% relative humidity. The inhibition of fungal growth is determined photometrically after 2 to 7 days, depending on the pathosystem, and percent antifungal activity relative to the untreated check is calculated.
Conidia of the fungus harvested from a fresh culture grown on artificial media, were directly mixed into nutrient broth (PDB potato dextrose broth). A DMSO solution of the test compounds was placed into a microtiter plate (96-well format) and the nutrient broth containing the fungal spores was added to it.
Fungicidal activity was evaluated on a 100-0 scale (100=no disease growth; 0=well completely covered by mycelium).

Assay [3] has as its system Septoria tritici. The assay can be described thus: Example C2: mixtures against Septoria tritici (leaf blotch), liquid culture. Type of assay: cell-based. The note with it: single component.
Source text: as §1, §2, §3
Mycelia fragments or conidia suspensions of a fungus prepared either freshly from liquid cultures of the fungus or from cryogenic storage, are directly mixed into nutrient broth. DMSO solutions of the test compound (max. 10 mg/mL) are diluted with 0.025% Tween20 by a factor of 50 and 10 μl of this solution is pipetted into a microtiter plate (96-well format). The nutrient broth containing the fungal spores/mycelia fragments is then added to give an end concentration of the tested compound. The test plates are incubated in the dark at 24° C. and 96% relative humidity. The inhibition of fungal growth is determined photometrically after 2 to 7 days, depending on the pathosystem, and percent antifungal activity relative to the untreated check is calculated.
Conidia of the fungus from cryogenic storage were directly mixed into nutrient broth (PDB potato dextrose broth). A DMSO solution of the test compounds was placed into a microtiter plate (96-well format) and the nutrient broth containing the fungal spores was added to it.
The following mixture compositions at the reported concentration (in ppm) in tables C2-3 to C2-5 gave the following disease control in this test Septoria tritici (leaf blotch). Fungicidal activity was evaluated on a 100-0 scale (100=no disease growth; 0=well completely covered by mycelium).

The mark [4] stands for this setting: Phakopsora pachyrhizi, foliar, applied alone, 22.5 g/ha, read-out: Observed Activity (% of untreated).
Where [5] appears, read: Phakopsora pachyrhizi, foliar, applied alone, 45 g/ha, read-out: Observed Activity (% of untreated).
Where [6] appears, read: 0.1 ppm, 100-0 scale (100=no disease growth).
The mark [7] stands for this setting: 0.3 ppm, 100-0 scale (100=no disease growth).
[8] abbreviates: Phakopsora pachyrhizi, foliar, applied alone, read-out: Observed Activity (% of untreated).
The mark [9] stands for this setting: Phakopsora pachyrhizi, foliar, single active ingredient, soybean, preventative, 100=no disease, read-out: Observed Activity (%).
Where [10] appears, read: single active ingredient, 9 g/ha.
The mark [11] stands for this setting: single active ingredient, 18 g/ha.
Setting [12] is: single active ingredient, 4.5 g/ha.
Where [13] appears, read: Phakopsora pachyrhizi, foliar, applied alone, 4.5 g/ha, read-out: Observed Activity (% of untreated).
Setting [14] is: Phakopsora pachyrhizi, foliar, applied alone, 9 g/ha, read-out: Observed Activity (% of untreated).
[15] abbreviates: Phakopsora pachyrhizi, foliar, applied alone, 18 g/ha, read-out: Observed Activity (% of untreated).
[16] abbreviates: Phakopsora pachyrhizi, foliar, single active ingredient, 4.5 g/ha, read-out: Observed Activity (%).
[17] abbreviates: Phakopsora pachyrhizi, foliar, single active ingredient, 9 g/ha, read-out: Observed Activity (%).
Setting [18] is: Phakopsora pachyrhizi, foliar, single active ingredient, 18 g/ha, read-out: Observed Activity (%).

Structures are written as SMILES. Like-named read-outs stand apart in the source and are kept apart here.

Turning to `OC(Cc1ccccc1Cl)(Cn1nc[nH]c1=S)C1(Cl)CC1` (stereo not drawn) [Prothioconazole], in assay [1] (setting [4]), the inhibition at 22.5 g/ha worked out at 74%. Further, the inhibition at 45 g/ha in assay [1] (setting [5]) came to 76%.

As for `CC(Cc1ccc(C(C)(C)C)cc1)CN1C[C@@H](C)O[C@@H](C)C1` (stereo partly drawn) [Fenpropimorph, reference compound], the inhibition at 0.1 ppm in assay [2] (setting [6]) came out at 50%. Moreover, in assay [2] (setting [7]), the inhibition at 0.3 ppm was 70%. In assay [1] (setting [8]), the inhibition at 225 g/ha stood at 8%, the inhibition at 450 g/ha came to 43% and the inhibition at 900 g/ha came to 76%. In addition, in assay [1] (setting [9]), the inhibition at 225 g/ha was found to be 8%, the inhibition at 450 g/ha stood at 43% and the inhibition at 900 g/ha came to 76%.

In the case of `Cc1cccc(-n2nnn(C)c2=O)c1COc1ccn(-c2ccc(Cl)cc2)n1` [Metyltetraprole], the “Observed Activity (% of untreated)” value in assay [1] (applied alone, 9 g/ha) is reported as 2%; in assay [1] (applied alone, 18 g/ha) it was 2%. Further, the “Observed Activity (%)” value in assay [1] (setting [10]) and in assay [1] (setting [11]) was 2% in each case.

For `CC1(C)N=C(c2cnc3ccccc3c2)c2ccccc2C1(F)F` [quinofumelin], the “Activity (%)” value in assay [3] (0.3 ppm, 100-0 scale) is 0%.

Regarding `CC1COC(Cn2cncn2)(c2ccc(Oc3ccc(Cl)cc3)cc2Cl)O1` (stereo not drawn) [Difenoconazole], the inhibition at 22.5 g/ha in assay [1] (setting [4]) is 0%. The inhibition at 45 g/ha in assay [1] (setting [5]) was 0%.

In the case of `Cn1cc(C(=O)Nc2cccc3c2[C@@H]2CC[C@H]3C2=C(Cl)Cl)c(C(F)F)n1` (racemic) [Benzovindiflupyr], the “Observed Activity (% of untreated)” value in assay [1] (applied alone, 2.25 g/ha) stood at 92%; in assay [1] (applied alone, 4.5 g/ha), 94%. Besides, the “Observed Activity (%)” value amounted to 92% in assay [1] (single active ingredient, 2.25 g/ha) and 94% in assay [1] (setting [12]).

Regarding `CCCC1COC(Cn2cncn2)(c2ccc(Cl)cc2Cl)O1` (stereo not drawn) [propiconazole], in assay [3] (Zymoseptoria tritici, 0.3 ppm, 100-0 scale, read-out: Activity (%)), the inhibition at 0.3 ppm turned out to be 70%.

In the case of `COC(=O)N(OC)c1ccccc1COc1ccn(-c2ccc(Cl)cc2)n1` [Pyraclostrobin], the inhibition at 4.5 g/ha in assay [1] (setting [13]) and in assay [1] (setting [16]) was 1% in each case. Besides, the inhibition at 9 g/ha in assay [1] (setting [14]) and in assay [1] (setting [17]) was 1% throughout. In addition, the inhibition at 18 g/ha in assay [1] (setting [15]) and in assay [1] (setting [18]) was 0% in each case.

As to `S1SSSSSSS1` [sulphur], in assay [2] (setting [7]), the inhibition at 0.3 ppm was 0%.

In the case of `O=C(NCCc1ncc(C(F)(F)F)cc1Cl)c1ccccc1C(F)(F)F` [fluopyram], the inhibition at 0.1 ppm in assay [2] (setting [6]) came to 0%. In addition, the inhibition at 0.3 ppm in assay [2] (setting [7]) was determined as 50%.

Take `CC(C)(C)C(O)(CCc1ccc(Cl)cc1)Cn1cncn1` (stereo not drawn) [tebuconazole]: in assay [2] (setting [6]), the inhibition at 0.1 ppm was 70%.

For `CON(C(=O)c1cn(C)nc1C(F)F)C(C)Cc1c(Cl)cc(Cl)cc1Cl` (stereo not drawn) [Pydiflumetofen], the “Observed Activity (% of untreated)” value came out at 0% in assay [1] (applied alone, 22.5 g/ha) and 4% in assay [1] (applied alone, 45 g/ha).

Take `CC(C1CC1)C(O)(Cn1cncn1)c1ccc(Cl)cc1` (stereo not drawn) [Cyproconazole]: the inhibition at 22.5 g/ha in assay [1] (setting [4]) came out at 51%. In assay [1] (setting [5]), the inhibition at 45 g/ha turned out to be 52%.

As to `CC(Cc1ccc(C(C)(C)C)cc1)CN1CCCCC1` (stereo not drawn) [Fenpropidin, reference compound], the inhibition at 0.1 ppm in assay [2] (setting [6]) was 0%. For the same compound, the inhibition at 0.3 ppm in assay [2] (setting [7]) was determined as 50%. Moreover, in assay [1] (setting [8]), the inhibition at 225 g/ha came to 64%, the inhibition at 450 g/ha was 61% and the inhibition at 900 g/ha turned out to be 82%. Further, in assay [1] (setting [9]), the inhibition at 225 g/ha turned out to be 64%, the inhibition at 450 g/ha was 61% and the inhibition at 900 g/ha is 82%.

Consider `CNC(=O)C(=N/OC)/C(C)=C\COc1ccn(-c2ccc(Cl)cc2Cl)n1` [(Z,2E)-5-[1-(2,4-dichlorophenyl)pyrazol-3-yl]oxy-2-methoxyimino-N,3-dimethyl-pent-3-enamide], for which the inhibition at 9 g/ha in assay [1] (setting [14]) and in assay [1] (setting [17]) was 2% in each case. Moreover, the inhibition at 18 g/ha in assay [1] (setting [15]) and in assay [1] (setting [18]) was 3% throughout.

In the case of `OC(Cn1cncn1)(c1ccc(F)cc1)c1ccccc1F` (stereo not drawn) [flutriafol], the inhibition at 0.1 ppm in assay [2] (setting [6]) is 20%. Moreover, the inhibition at 0.3 ppm in assay [2] (setting [7]) was 70%.

Turning to `CO/C=C(/C(=O)OC)c1ccccc1Oc1cc(Oc2ccccc2C#N)ncn1` [Azoxystrobin], the “Observed Activity (% of untreated)” value is on record as 0% in assay [1] (applied alone, 2.25 g/ha); 15% in assay [1] (applied alone, 4.5 g/ha); 23% in assay [1] (applied alone, 9 g/ha); 9% in assay [1] (applied alone, 18 g/ha). The figures for the “Observed Activity (%)” value in assay [1] (setting [12]), in assay [1] (setting [10]) and in assay [1] (setting [11]) were 0%, 2% and 26%, respectively.

Turning to `CC(C)(C)[C@@H](O)[C@@H](Cc1ccc(Cl)cc1)n1cncn1` (racemic) [paclobutrazol], the inhibition at 0.1 ppm in assay [2] (setting [6]) was 0%. Moreover, in assay [2] (setting [7]), the inhibition at 0.3 ppm was 50%.

Regarding `CCCCC(O)(Cn1cncn1)c1ccc(Cl)cc1Cl` (stereo not drawn) [hexaconazole], in assay [3] (Zymoseptoria tritici, 0.1 ppm, 100-0 scale (100=no disease growth)), the inhibition at 0.1 ppm was 70%.

`CON=C(C(=O)OC)c1ccccc1CON=C(C)c1cccc(C(F)(F)F)c1` [Trifloxystrobin]: in assay [1] (Phakopsora pachyrhizi, foliar, applied alone, 2.25 g/ha, read-out: Observed Activity (% of untreated)), the inhibition at 2.25 g/ha worked out at 0%. Besides, the inhibition at 4.5 g/ha in assay [1] (setting [13]) was 3%; in assay [1] (setting [16]), 0%. In addition, the inhibition at 9 g/ha stood at 0% in assay [1] (setting [14]) and 1% in assay [1] (setting [17]). Moreover, the inhibition at 18 g/ha in assay [1] (setting [15]) was 19%; in assay [1] (setting [18]), 33%.

`Cn1cc(C(=O)Nc2ccccc2-c2cc(F)c(F)c(F)c2)c(C(F)F)n1` [fluxapyroxad]: the “Activity (%)” value in assay [2] (0.1 ppm) is reported as 50%; in assay [2] (setting [6]), 50%; in assay [2] (0.3 ppm), 70%; in assay [2] (setting [7]), 70%.

Take `CCOC(=O)C1CC(=O)C(=C(O)C2CC2)C(=O)C1` (stereo not drawn) [trinexapac-ethyl]: in assay [2] (setting [7]), the inhibition at 0.3 ppm was 0%.
